Source: patent US4182895A, “1-Amino-lower-alkyl-3,4-diphenyl-1H-pyrazoles” (Sterling Drug Inc., priority 1978, dated 1980)

Key:
[1] = tested on: acetylcholine-induced abdominal constriction; assay: Acetylcholine-induced abdominal constriction test (Ach), analgesic activity; type: in vivo, mice; details: for ED50: Mus musculus
Source text: (§1) The test procedures used to determine the analgesic activities of the compounds of the invention have been described in detail in the prior art and are as follows: The acetylcholine-induced abdominal constriction test, which is a primary analgesic screening test to measure the ability of a test agent to suppress acetylcholine-induced abdominal constriction in mice described by Collier et al., Brit. J. Pharmacol. Chemotherap. 32, 295 (1968) and the phenyl p-quinone-induced writhing test, also a primary analgesic screening test, designed to measure the ability of a test agent to prevent phenyl p-quinone-induced writhing in mice, described by Pearl and Harris, J. Pharmacol. Exptl. Therap. 154, 319-323 (1966).

tetrabenazine = assay: Anti-tetrabenazine (TB) test, anti-depressant activity: photocell activity counts after tetrabenazine; type: in vivo, Male Swiss-Webster mice; details: 4 h before tetrabenazine 50 mg./kg. i.p.
Description: The test procedure used to determine the anti-depressant activity of the compounds of the invention is described as follows: Male Swiss-Webster mice (Taconic Farms) weighing from 19-24 g. were divided into four groups of nine to ten mice per group. […] The fourth group received the vehicle only. Four hours following medication, all the control and the test animals were medicated with 50 mg./kg. (i.p.) of tetrabenazine and were placed in a photocell activity cage [described by Harris et al., Psychon. Sci., 4, 267 (1966)] equipped with a digital counter to record the number of times that a light beam impinging on a photocell is interrupted during the test period. Beginning thirty minutes after tetrabenazine medication, the photocell units were activated and the photocell counts recorded over a fifty minute period.

[2] = Rosenthal, 1953; cited from earlier work
[3] = tested on: phenyl p-quinone-induced writhing; assay: Phenyl p-quinone-induced writhing test (PPQ), analgesic activity; type: in vivo, mice; details: Mus musculus, po
Source text: as §1

[4] = Buchi et al., 1955; cited from earlier work
[5] = Tested at 4, 16 and 64 mg./kg. (p.o.), activity = significant difference, 0.05 level or less

CCN(CC)CCCn1cc(-c2ccccc2)c(-c2ccccc2)n1.Cl [Example 4, 1-[3-(N,N-diethylamino)propyl]-3,4-diphenyl-1H-pyrazole hydrochloride]
ED50 ([1]; sc): 2.2 mg/kg | TB (anti-tetrabenazine activity) (tetrabenazine; [5]): Inac.

NCCn1nc(-c2ccccc2)cc1-c1ccccc1 [1-(2-aminoethyl)-3,5-diphenyl-1H-pyrazole]
local anesthetic activity [2]: having local anesthetic activity

Cl.Cl.NCCCn1cc(-c2ccccc2)c(-c2ccccc2)n1 [Example 1A, 1-(3-aminopropyl)-3,4-diphenyl-1H-pyrazole dihydrochloride]
ED50 ([1]; sc): 11 mg/kg | TB (anti-tetrabenazine activity) (tetrabenazine; [5]): Inac.

CCN(CC)CCn1cc(-c2ccccc2)c(-c2ccccc2)n1.Cl [Example 3, 1-[2-(N,N-diethylamino)ethyl]-3,4-diphenyl-1H-pyrazole hydrochloride]
Ach % effect ([1]; 10 mg./kg. s.c.): 53% | Ach % effect ([1]; 50 mg./kg. s.c.): 67% | Ach % effect ([1]; 100 mg./kg. s.c.): 60% | ED50 ([1]; po): 29 mg/kg | TB (anti-tetrabenazine activity) (tetrabenazine; [5]): Inac. | ED50 [3]: 90 mg/kg

Cc1cn(CCN(C)C)nc1-c1ccccc1 [1-(2-dimethylaminoethyl)-3-phenyl-4-methyl-1H-pyrazole]
analgesic activity [4]: analgesic activity is asserted

CN(C)CCCn1cc(-c2ccccc2)c(-c2ccccc2)n1.Cl.Cl [Example 2, 1-[3-(N,N-dimethylamino)propyl]-3,4-diphenyl-1H-pyrazole dihydrochloride]
TB (anti-tetrabenazine activity) (tetrabenazine; at 2 mg./kg.): Inac. | TB (anti-tetrabenazine activity) (tetrabenazine; at 4, 8 and 16 mg./kg.): Act.

CNCCCn1cc(-c2ccccc2)c(-c2ccccc2)n1.Cl [Example 1B, 1-[3-(N-methylamino)propyl]-3,4-diphenyl-1H-pyrazole hydrochloride]
TB (anti-tetrabenazine activity) (tetrabenazine; at 4 mg./kg.): Inac. | TB (anti-tetrabenazine activity) (tetrabenazine; at 16 and 64 mg./kg.): Act.
